# Assay results published in PubChem BioAssay (NCI).
#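 Protocol summary: plate cells (96-well), add compound at 5 concentrations, incubate 48 h, interpolate endpoints linearly. The concentration for full growth arrest is given as TGI.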
# Experiments:
# Assay in all cases: NCI tumour cell line growth inhibition, 48 h
# [1] = system: EKVX NSCLC
# [2] = system: HCT-15 colon
# [3] = system: LOX IMVI melanoma
# [4] = system: M14 melanoma
# [5] = system: MDA-MB-435
# [6] = system: MDA-N
# [7] = system: NCI-H226 lung
# [8] = system: NCI-H522 lung
# [9] = system: RPMI-8226 leukemia
# [10] = system: SF-539 CNS
# [11] = system: SK-MEL-28 melanoma
# [12] = system: T-47D breast
compound,measurement,setting,value
O=C(O)c1ccc(Nc2nc3ccc(C(F)(F)F)cc3nc2-c2ccccc2)cc1,TGI,[1],> 100 µM
same,TGI,[2],57.3 µM
same,TGI,[3],> 100 µM
same,TGI,[4],> 100 µM
same,TGI,[5],> 100 µM
same,TGI,[6],> 100 µM
same,TGI,[7],> 100 µM
same,TGI,[8],> 100 µM
same,TGI,[9],> 100 µM
same,TGI,[10],90.8 µM
same,TGI,[11],> 100 µM
same,TGI,[12],52.8 µM
COc1cc2c(cc1OC)-c1cc3cc(OC)c(OC)cc3c(C)[n+]1CC2 (tested in a mixture with another compound),TGI,[1],> 100 µM
same,TGI,[2],> 100 µM
same,TGI,[3],> 100 µM
same,TGI,[4],> 100 µM
same,TGI,[5],> 100 µM
same,TGI,[6],> 100 µM
same,TGI,[7],> 100 µM
same,TGI,[8],> 100 µM
same,TGI,[9],> 100 µM
same,TGI,[10],> 100 µM
same,TGI,[11],> 100 µM
same,TGI,[12],25.2 µM
CC(c1ccccc1)n1c2ccccc2c2c(N)ncnc21 (stereo unspecified),TGI,[1],24.7 µM
same,TGI,[2],59.4 µM
same,TGI,[3],33.1 µM
same,TGI,[4],34.1 µM
same,TGI,[5],31 µM
same,TGI,[6],51.9 µM
same,TGI,[8],31.2 µM
same,TGI,[9],74.5 µM
same,TGI,[10],30.8 µM
same,TGI,[11],33.8 µM
same,TGI,[12],59.6 µM
CC(=O)c1ccc(Nc2nc3ccccc3c3occc23)cc1,TGI,[1],> 100 µM
same,TGI,[2],33.8 µM
same,TGI,[3],61.7 µM
same,TGI,[4],36.5 µM
same,TGI,[5],9.69 µM
same,TGI,[6],47.7 µM
same,TGI,[7],98 µM
same,TGI,[8],9.12 µM
same,TGI,[9],29.6 µM
same,TGI,[10],53.4 µM
same,TGI,[11],15.9 µM
same,TGI,[12],29.9 µM
CCOC(=O)c1c(Br)c(-c2ccc([N+](=O)[O-])cc2)c(Br)n1C,TGI,[1],> 10 µM
same,TGI,[2],> 10 µM
same,TGI,[3],> 10 µM
same,TGI,[4],> 10 µM
same,TGI,[5],> 10 µM
same,TGI,[6],> 10 µM
same,TGI,[7],> 10 µM
same,TGI,[8],> 10 µM
same,TGI,[9],> 10 µM
same,TGI,[10],> 10 µM
same,TGI,[11],> 10 µM
same,TGI,[12],> 10 µM
CC(=O)c1sc2c(c1OC(=O)c1ccccc1)c(=O)n(-c1ccccc1)c(=S)n2-c1ccccc1,TGI,[1],69.1 µM
same,TGI,[2],62.9 µM
same,TGI,[3],5.26 µM
same,TGI,[4],14.3 µM
same,TGI,[5],28.9 µM
same,TGI,[6],27.2 µM
same,TGI,[7],8.33 µM
same,TGI,[8],67.8 µM
same,TGI,[9],7.32 µM
same,TGI,[10],5.65 µM
same,TGI,[11],30.4 µM
same,TGI,[12],> 50.3 µM
CC1=C(C(=O)NNC(=O)c2ccccc2O)CC(C(=O)NNC(=O)c2ccccc2O)=C(C)N1,TGI,[1],> 72.7 µM
same,TGI,[2],> 100 µM
same,TGI,[3],> 100 µM
same,TGI,[4],> 76 µM
same,TGI,[5],> 100 µM
same,TGI,[6],> 100 µM
same,TGI,[7],> 41.7 µM
same,TGI,[8],> 26.7 µM
same,TGI,[9],> 100 µM
same,TGI,[10],41.8 µM
same,TGI,[11],> 100 µM
same,TGI,[12],> 32.6 µM
COC1=C(OC)C(=O)C(C/C=C/c2c(Cl)nc3sccn23)=C(C)C1=O,TGI,[1],25.1 µM
same,TGI,[2],> 100 µM
same,TGI,[3],12.1 µM
same,TGI,[4],32.5 µM
same,TGI,[5],23.6 µM
same,TGI,[6],19.8 µM
same,TGI,[8],33.2 µM
same,TGI,[9],27.5 µM
same,TGI,[10],31.7 µM
same,TGI,[11],33.7 µM
same,TGI,[12],84.2 µM
CCOC(=O)C12CCC(c3c(C)cccc3C)(O1)C(C(=O)OC)=C2C(=O)OC (stereo unspecified),TGI,[1],> 10 µM
same,TGI,[2],> 10 µM
same,TGI,[3],> 7.87 µM
same,TGI,[4],> 9.53 µM
same,TGI,[5],2.27 µM
same,TGI,[6],1.98 µM
same,TGI,[7],> 10 µM
same,TGI,[8],> 10 µM
same,TGI,[9],> 10 µM
same,TGI,[10],4.76 µM
same,TGI,[11],> 10 µM
same,TGI,[12],> 10 µM
